# Source: US11648199B2 (AI Therapeutics, Inc, priority 2014, dated 2023)
# Read-outs that look alike come from different tables or passages of the source.
# What was measured:
# [1] = tested on: TSC2 deficient TRI-AML101 cell line; experiment: Cell viability, 10 point dose response, CellTiter-Glo; settings: 72 hours after compound addition, relative to DMSO control (FIG. 7, bottom)
# Method: Two thousand cells in 50 uL of growth media (DMEM, 10% FBS, and 1% Penicillin/Streptomycin) were plated per well in a 96 well plate. […] 72 hours after compound addition, relative cell viability was determined by CellTiter-Glo® luminescence assay (Promega) and expressed as a percentage relative to vehicle (DMSO) treated control cells.
# [2] = 28-day repeat dose inhalation toxicokinetics, study 7300225; format: in vivo, SD rats; settings: average of D28
# Text: Two sets of animals were used to perform the toxicokinetic measurements for this study.
# [3] = tested on: phosphorylated S6 protein (mTOR activity); experiment: Phosphorylated S6 in mouse lung after OPA or oral rapamycin; format: in vivo, C57bl/6 mice
# Text: To validate this approach, we used the presence of phosphorylated S6 protein in murine lung tissue as a biomarker for mTOR activity. In the mouse strain used (C57b1/6), the mouse airway and alveolar epithelial cells have constitutively active (phosphorylated, “p”) S6 protein. The S6 protein is typically phosphorylated by S6K which is downstream of mTORC1 and is activated, for example, downstream of growth factors such as epidermal growth factor (EGF), AKT, ERK, and RSK. mTORC1 promotes cell growth and proliferation by stimulating anabolic processes such as biosynthesis of lipids, proteins, and organelles, and suppressing catabolic processes such as autophagy.
# [4] = 28-day repeat dose inhalation toxicokinetics, study 7300227; format: in vivo, Beagle dogs; settings: for concentration at 24 h: Beagle, dog, lung, read-out: Lung 24 hr trough levels; for Blood trough levels / Max blood levels: average of D28
# Text: For the dog study, a positive flow delivery system (PFDS) consisting of a central plenum and delivery arms was utilized. The central plenum was of modular design with separate ports into which were attached 5 delivery arms fitted with oronasal exposure masks fitted with inlet and outlet tubes. The mask was fitted over the dog's muzzle in such a way that the nose was inside the mask, allowing entrance and exit of air. During exposure, animals wore a harness and were placed on a restraint platform. The harness was attached to two side poles on the platform in order to restrict lateral movement of the dog. The front part of the harness was loosely attached to a hook on the front of the platform to prevent the animal from turning around. […] For each dosing group, one set of animals (N=6) was dosed for 60 minutes each day for 28 consecutive days.
# [5] = IV 10 mg/kg, 24 hours after single dose; cited from earlier work
# [6] = tested on: Phospho-S6 Ribosomal Protein (Ser240/244); experiment: S6-P/total S6 western blot of rat lung homogenates after inhalation; format: in vivo, Sprague-Dawley rats; settings: inhaled, target dose 0.354 mg/kg (FIG. 8B)
# Method: Lungs samples from each animal were collected and snap frozen. The individual frozen lung samples were homogenized (Qiagen TissueLyser LT according to manufacturer's protocols) in 1×RIPA Buffer with protease and phosphatase inhibitors. […] The Western blot images were analyzed by NIH imageJ v1.48 to generate the respective antibody reactivity/intensity and create the ratio of S6 phosphorylation (S6-P) to total S6 intensities for each lung sample. The S6-P/total S6 ratios (y-axis) for sample organized by timepoint group (X-axis) were plotted on a one grouping variable scatter plot vertical graph (GraphPad, version 4.0), all samples in groups are represented by filled in black dots (●) on the graph and average is shown by the horizontal line between the dots within each respective group (FIG. 8B).
# [7] = sirolimus in lymphangioleiomyomatosis; cited from earlier work
# [8] = 24 hours after 14th dose, cited from earlier work
# in vivo = settings: Sprague-Dawley, rat, inhaled
# [9] = Observation for adverse effects / clinical signs after OPA dosing; settings: for adverse effects / clinical signs: 1 mg/kg, up to 72 h after dosing
# Method: The oral dose was formulated using pharmaceutical oral liquid formulation Rapamune Oral® (Pfizer). […] An additional group of 6 mice received vehicle only (10% ethanol in water). […] At the 72-h necropsy, blood was obtained by cardiac puncture and the lungs removed.
# The time of dosing was recorded as 0. Animals in groups 2 and 3 were euthanized at 1 h after dosing.
# [10] = Extrapolation of rat and dog inhalation data to human dosing; settings: extrapolated
# [11] = Biodistribution of rapamycin via inhalation, first study (single dose and 5 days)
# [12] = Lung concentration of rapamycin after inhalation, Study Day 1; format: in vivo, Sprague-Dawley rats
# Text: The results of this initial study were replicated and expanded in additional rat studies and dog studies. […] Two sets of animals were used to perform the toxicokinetic measurements for this study.
# [13] = clinical use; cited from earlier work
# [14] = emitted dose 50 ug, repeat inhaled daily dose 5 ug
# [15] = emitted dose 2850 ug, repeat inhaled daily dose 285 ug
# [16] = emitted dose 160 ug, repeat inhaled daily dose 40 ug
# [17] = emitted dose 424 ug, repeat inhaled daily dose 106 ug
# [18] = emitted dose 87 ug, repeat inhaled daily dose 35 ug
# [19] = emitted dose 175 ug, repeat inhaled daily dose 70 ug
# [20] = inhaled 0.0360 mg/kg/day once a day, trough day 5
# [21] = inhaled 1.0000 mg/kg/day once a day, trough day 5
smiles,measurement,setting,value
"CO[C@H]1C[C@@H]2CC[C@@H](C)[C@@](O)(O2)C(=O)C(=O)N2CCCC[C@H]2C(=O)O[C@H]([C@H](C)C[C@@H]2CC[C@@H](O)[C@H](OC)C2)CC(=O)[C@H](C)/C=C(\C)[C@@H](O)[C@@H](OC)C(=O)[C@H](C)C[C@H](C)/C=C/C=C/C=C/1C [Rapamycin, (3 S,6R,7E,9R,10R,12R,14S,15E,17E,19E,21S,23 S,26R,27R,34aS)-9,10,12,13,-14,21,22,23,24,25,26,27,32,33,34,34a-hexadecahydro-9,27-dihydroxy-3-[(1R)-2-[(1S,3R,4R)-4-hydroxy-3-methoxycyclohexyl]-1-methylethyl]-10,21-dimethox-y-6,8,12,14,20,26-hexamethyl-23,27-epoxy-3H-pyrido[2,1-c][1,4]oxaazacyclohentriacontine-1,5,11,28,29(4H,6H,31H)-pentone]",lowest concentration at which viability was inhibited,[1],0.05 nM
same,Blood trough levels,[2]; [14],2 ng/mL
same,Max blood levels,[2]; [14],7.6 ng/mL
same,Max blood levels,"[2]; emitted dose 1425 ug, repeat inhaled daily dose 143 ug",70.5 ng/mL
same,Blood trough levels,[2]; [15],21.0 ng/mL
same,Max blood levels,[2]; [15],77.8 ng/mL
same,level of phosphorylated S6 (pS6) in lung,"[3]; OPA 1 mg/kg, 1 hr (FIG. 8A)",reduced substantially
same,level of phosphorylated S6 (pS6) in lung,"[3]; OPA 1 mg/kg, 72 hr (FIG. 8A)",remained suppressed
same,level of phosphorylated S6 (pS6) in lung,"[3]; oral gavage 1 mg/kg, 1 hr (FIG. 8A)",reduced substantially
same,concentration at 24 h,"[4]; inhaled, 106 ug",61 ng/g
same,concentration at 24 h,"[4]; emitted dose 160 ug, repeat inhaled daily dose 40 ug, after 28 days",32 ng/g
same,Blood trough levels,[4]; [16],1.9 ng/mL
same,Max blood levels,[4]; [16],7.4 ng/mL
same,Blood trough levels,[4]; [17],5.9 ng/mL
same,Max blood levels,[4]; [17],27.3 ng/mL
same,Rapamycin in Blood,[5],31 ng/mL
same,Rapamycin in Lung,[5],721 ng/g
same,S6 phosphorylation in lung tissue,[6],Inhibits S6 Phosphorylation
same,blood concentrations reported,[7],5 to 15 ng/mL
same,Rapamycin in Blood,[8]; IV 0.04 mg/kg/day,9.4 ng/mL
same,Rapamycin in Lung,[8]; IV 0.04 mg/kg/day,219 ng/g
same,Rapamycin in Blood,[8]; IV 0.08 mg/kg/day,15.0 ng/mL
same,Rapamycin in Lung,[8]; IV 0.08 mg/kg/day,457 ng/g
same,Rapamycin in Blood,[8]; IV 0.40 mg/kg/day,19.6 ng/mL
same,Rapamycin in Lung,[8]; IV 0.40 mg/kg/day,868 ng/g
same,Rapamycin in Blood,[8]; oral 0.4 mg/kg/day,0.8 ng/mL
same,Rapamycin in Lung,[8]; oral 0.4 mg/kg/day,42 ng/g
same,Rapamycin in Blood,[8]; oral 0.8 mg/kg/day,2.1 ng/mL
same,Rapamycin in Lung,[8]; oral 0.8 mg/kg/day,59 ng/g
same,concentration at 12 h,"in vivo; lung, 0.036 mg/kg/day",95 ng/g
same,concentration at 12 h,"in vivo; lung, 1 mg/kg/day",~14800 ng/g
same,concentration at 12 h,"in vivo; whole blood, 0.036 mg/kg/day",4 ng/mL
same,concentration at 12 h,"in vivo; whole blood, 1 mg/kg/day",645 ng/mL
same,adverse effects / clinical signs,[9],No significant clinical signs were observed
same,adverse effects / clinical signs,[9]; listed as rapamycin,No adverse effects were observed
same,acute toxicity to lung tissue,"[9]; OPA 1 mg/kg, relatively high amounts in lung",not acutely toxic to lung tissue
same,Blood trough levels,[10]; [18],0.15 ng/mL
same,Lung 24 hr trough levels,[10]; [18],2 ng/g
same,Max blood levels,[10]; [18],0.65 ng/mL
same,Blood trough levels,[10]; [19],0.3 ng/mL
same,Lung 24 hr trough levels,[10]; [19],4 ng/g
same,Max blood levels,[10]; [19],1.3 ng/mL
same,Rapamycin in Blood,[11]; [20],4 ng/mL
same,Rapamycin in Lung,[11]; [20],87 ng/g
same,Rapamycin in Blood,[11]; [21],746 ng/mL
same,Rapamycin in Lung,[11]; [21],17163 ng/g
same,Rapamycin in Lung,"[11]; inhaled 1.00 mg/kg/day, 12 hrs after a single dose",14831 ng/g
same,concentration at 2 h post-dosing,"[12]; Sprague-Dawley, rat, lung, inhaled, target dose 11 ug Day 1, 2 hr post-dosing, read-out: Avg Lung rapa",250 ng/g
same,concentration at 4 h post-dosing,"[12]; Sprague-Dawley, rat, lung, inhaled, target dose 11 ug Day 1, 4 hr post-dosing, read-out: Avg Lung rapa",192 ng/g
same,concentration at 12 h post-dosing,"[12]; Sprague-Dawley, rat, lung, inhaled, target dose 11 ug Day 1, 12 hr post-dosing, read-out: Avg Lung rapa",95 ng/g
same,Avg Lung rapa,"[12]; target dose 11 ug Day 1, immediate post-dosing",560 ng/g
same,Avg Lung rapa,"[12]; target dose 11 ug Day 1, midway dosing",462 ng/g
same,lung toxicity,[13],"pulmonary toxicity, usually in the form of interstitial pneumonitis"
